Laboratory results as given in patent publication US20080280837A1, “Biologically Active Compounds with Anti-Angiogenic Properties” (priority 2004, published 2008).
pEC50, pIC50, pKi: −log10 of the molar value. Where a name gives a salt, the structure may show the parent alone.

Tests used:
[1] = tested on: HUVEC tube formation; experiment: Matrigel tube formation assay; format: cell-based, human; conditions: 22 hrs, 50% inhibition of tube formation
Method: HUVEC (Clonetics) were plated in 96 well plates in EGM-2 media (Clonetics) at 2.5 to 3×10^4 cells per well. Cells of less than 6 passages were used in all studies. Wells were precoated with 50 μL growth factor containing Matrigel (Becton Dickinson). HUVEC were allowed to form tubes by incubation at 37° C. in 5% CO2 for 22 hrs. In test wells compound was added in the desired concentration. Photographic images of the wells ×4 magnification were used to determine size of the tubes, length of tubes and number of junctions using image analysis software.

[2] = Solubility of salts of compound 1; format: physicochemical; conditions: for Solubility in Water: overnight
[3] = molecular target: T1, SSTR-1 (Homo sapiens, UniProt P30872); experiment: Radioligand binding screen against somatostatin subtype SSTR-1; conditions: Table 8; read-out: Ki SSTR1
T1 construct: expressed in transfected cells
T1 sequence (P30872 whole entry, species assumed): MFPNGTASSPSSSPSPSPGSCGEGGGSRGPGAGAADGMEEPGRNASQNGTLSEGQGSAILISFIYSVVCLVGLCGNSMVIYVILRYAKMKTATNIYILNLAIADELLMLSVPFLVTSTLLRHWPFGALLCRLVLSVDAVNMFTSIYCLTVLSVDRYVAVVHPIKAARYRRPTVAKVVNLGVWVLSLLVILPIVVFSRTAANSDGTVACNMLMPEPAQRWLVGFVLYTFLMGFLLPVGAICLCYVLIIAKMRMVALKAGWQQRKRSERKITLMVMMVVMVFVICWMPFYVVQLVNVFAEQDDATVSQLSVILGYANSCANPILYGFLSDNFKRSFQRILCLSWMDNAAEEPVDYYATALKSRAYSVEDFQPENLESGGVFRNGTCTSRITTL
Method: (§1) Receptor membrane preparations containing the desired cloned receptor (for example cloned human somatostatin receptor subtype 5, SSTR5) and radio-labeled ligand (for example 3-[^125I]iodotyrosyl^11 Somatostatin-14)) were diluted at the concentration required for testing and according to the specific parameters associated with the selected receptor-ligand combination, including receptor Bmax, ligand Kd and any other parameters necessary to optimize the experimental conditions. When tested for competition activity to the reference ligand, “compound 1” was mixed with membrane suspension and the radiolabeled reference ligand (with or without an excess of cold ligand to the receptor for determination of non-specific binding) and incubated at the temperature required by internal standard operating procedures. Following incubation, the binding reaction was stopped by the addition of ice-cold washing buffer and filtered on appropriate filters, which are then counted. Data analysis and curve-fitting was performed with XLfit (IDBS).
(§2) 10 mM solutions of test compounds in 100% DMSO were prepared. ˜160 μl was used for each dilution (20 μl/well in triplicate).
(§3) A 1.25 mM assay stock was prepared by making a 1:8 dilution of the 10 mM solution. (To 30 μL of the 10 mM solution was added 210 μL milli-Q H2O. A 1:5 dilution series in milli-Q H2O was then prepared.
(§4) In primary screening experiments compounds were tested in duplicate for a particular concentration.

[4] = molecular target: T2, SSTR-2 (Homo sapiens, UniProt P30874); experiment: Radioligand binding screen against somatostatin subtype SSTR-2; conditions: Table 8; for pKi: read-out: Ki SSTR2
T2 construct: expressed in transfected cells
T2 sequence (P30874 whole entry): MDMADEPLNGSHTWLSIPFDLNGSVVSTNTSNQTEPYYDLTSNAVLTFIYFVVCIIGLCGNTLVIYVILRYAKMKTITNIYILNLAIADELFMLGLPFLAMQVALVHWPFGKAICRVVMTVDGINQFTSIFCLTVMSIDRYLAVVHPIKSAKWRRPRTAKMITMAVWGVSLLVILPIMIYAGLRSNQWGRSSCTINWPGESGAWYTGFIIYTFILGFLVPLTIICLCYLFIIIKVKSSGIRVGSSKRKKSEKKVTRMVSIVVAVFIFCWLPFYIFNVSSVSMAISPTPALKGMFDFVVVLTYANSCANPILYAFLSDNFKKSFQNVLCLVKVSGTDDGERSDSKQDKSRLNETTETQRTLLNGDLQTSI
Method: as §1, §2, §3, §4

[5] = molecular target: T3, SSTR-3 (Homo sapiens, UniProt P32745); experiment: Radioligand binding screen against somatostatin subtype SSTR-3; conditions: Table 8; for pKi: read-out: Ki SSTR3; for pIC50: shown where Ki could not be determined (NoModel), read-out: IC50 SSTR3 (in parentheses)
T3 construct: expressed in transfected cells
T3 sequence (P32745 whole entry): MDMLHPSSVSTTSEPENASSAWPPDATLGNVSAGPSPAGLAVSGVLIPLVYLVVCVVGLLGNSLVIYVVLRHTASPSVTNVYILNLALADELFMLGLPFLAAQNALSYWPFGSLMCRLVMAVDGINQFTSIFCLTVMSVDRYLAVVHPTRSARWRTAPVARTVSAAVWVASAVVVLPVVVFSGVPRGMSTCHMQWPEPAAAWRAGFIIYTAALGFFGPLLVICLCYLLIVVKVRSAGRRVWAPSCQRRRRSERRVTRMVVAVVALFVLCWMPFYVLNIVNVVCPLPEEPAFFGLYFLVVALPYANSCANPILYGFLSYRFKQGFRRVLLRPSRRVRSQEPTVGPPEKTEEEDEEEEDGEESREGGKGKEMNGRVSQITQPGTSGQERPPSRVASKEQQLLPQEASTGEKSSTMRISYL
Method: as §1, §2, §3, §4

[6] = molecular target: T4, SSTR-4 (Homo sapiens, UniProt P31391); experiment: Radioligand binding screen against somatostatin subtype SSTR-4 (SST4 assay); conditions: Table 8; read-out: Ki SSTR4
T4 construct: expressed in transfected cells
T4 sequence (P31391 whole entry): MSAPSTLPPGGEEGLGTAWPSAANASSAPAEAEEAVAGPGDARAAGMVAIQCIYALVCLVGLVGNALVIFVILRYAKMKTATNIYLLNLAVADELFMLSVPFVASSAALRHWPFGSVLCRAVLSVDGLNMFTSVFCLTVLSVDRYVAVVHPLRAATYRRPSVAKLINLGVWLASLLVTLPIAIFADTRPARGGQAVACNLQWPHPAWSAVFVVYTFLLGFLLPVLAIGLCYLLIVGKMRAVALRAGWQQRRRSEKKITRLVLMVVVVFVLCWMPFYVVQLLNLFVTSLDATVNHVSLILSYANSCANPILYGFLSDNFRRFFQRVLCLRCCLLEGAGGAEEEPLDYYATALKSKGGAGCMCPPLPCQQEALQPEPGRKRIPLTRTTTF
Method: as §1, §2, §3
Assays were performed in triplicate at each concentration within the 1:5 dilution series: 250 μM, 50 μM, 10 μM, […], 0.4 μM, 0.08 μM, 0.016 μM, 0.0032 μM, etc. (for SST4 assay) and 125 μM, 10 μM, 2 μM, 1 μM, 0.5 μM, etc (for SST5 assay).
as §4

[7] = molecular target: T5, Human SST5 somatostatin receptor (SSTR5) (Homo sapiens, UniProt P35346); experiment: Filter plate assay for SST5 receptor, displacement of [125I]SST-14; format: binding; conditions: Table 8; for pIC50: shown where Ki could not be determined (NoModel), read-out: IC50 SSTR5 (in parentheses)
T5 construct: expressed in transfected cells; host or cells: HEK-293 EBNA
T5 sequence (P35346 whole entry): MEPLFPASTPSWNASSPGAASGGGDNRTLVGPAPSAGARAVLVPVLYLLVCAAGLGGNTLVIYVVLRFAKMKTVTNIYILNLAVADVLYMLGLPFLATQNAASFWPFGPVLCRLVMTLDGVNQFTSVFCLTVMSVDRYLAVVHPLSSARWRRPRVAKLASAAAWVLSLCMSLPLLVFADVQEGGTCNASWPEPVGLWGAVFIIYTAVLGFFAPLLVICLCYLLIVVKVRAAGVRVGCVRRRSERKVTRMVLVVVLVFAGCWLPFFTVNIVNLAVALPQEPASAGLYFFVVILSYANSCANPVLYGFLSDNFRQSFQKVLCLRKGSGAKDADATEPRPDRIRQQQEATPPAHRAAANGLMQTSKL
Summary of the method: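 HEK-293 EBNA membranes expressing human SST5 (5.5 μg) incubated 60 min at 25 °C with 4 nM [125I]SST-14 and compound in pH 7.5 Tris/EGTA/MgCl2/sucrose buffer. Bound radioactivity collected on PEI-coated glass fiber filters and counted; triplicate 1:5 dilution series from 125 μM, non-specific binding with excess cold ligand.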

[8] = tested on: Human Umbilical Vein Endothelial Cells (HUVEC); experiment: Endothelial cell proliferation assay (MTS); format: cell-based; conditions: 48 hrs
Method: Human Umbilical Vein Endothelial Cells (HUVEC from Clonetics) were plated in 96 well plates at 1000 cell per well in EGM-2 medium (Clonetics). Cells were grown overnight at 37° C. in 5% CO2. Fresh EGM-2 medium containing compound at the desired concentration was added to the wells and the cells allowed to grow for a further 48 hrs. A MTS (Promega) colorimetric assay was performed after 48 hrs to determine cell growth according to the manufacturers instructions. Results are presented in terms of percentage growth.

| SMILES | pKi [3] | pKi [4] | pKi [5] | pKi [6] | pKi [7] | Percent cell growth at 125 µM [8] [%] | Percent cell growth at 250 µM [8] [%] | other results |
| --- | --- | --- | --- | --- | --- | --- | --- | --- |
| COC1C(O)C(COCc2ccc3ccccc3c2)OC(OCc2ccc(Cl)cc2)C1NC(=O)C1CCCN(C(=N)N)C1 (mixture of isomers) [14 mixture] |  |  |  |  |  |  |  | pEC50 [1]: 3.81 |
| COCC1OC(OCc2ccc(Cl)cc2)C(NC(=O)CCN)C(OCc2ccc3ccccc3c2)C1O (stereo not drawn) [3 alpha] |  |  |  |  |  |  |  | pEC50 [1]: 4.35 |
| COCC1OC(OCc2ccc(Cl)cc2)C(NC(=O)CCN)C(OCc2ccc3ccccc3c2)C1O (stereo not drawn) [3 beta] |  |  |  |  |  |  |  | pEC50 [1]: 4.05 |
| COC[C@H]1O[C@H](OCCc2ccccc2)[C@H](NC(=O)CCCN)[C@@H](OCc2ccc3ccccc3c2)[C@@H]1O [Acetate] |  |  |  |  |  |  |  | Solubility in Water [2]: 6960 µg/mL |
| COC[C@H]1O[C@H](OCCc2ccccc2)[C@H](NC(=O)CCCN)[C@@H](OCc2ccc3ccccc3c2)[C@@H]1O [Citrate] |  |  |  |  |  |  |  | Solubility in Water [2]: 4540 µg/mL |
| COC[C@H]1OC(OCc2ccc(Cl)cc2)[C@H](NC(=O)CCCN=C(N)N)[C@H](OCc2ccc(Cl)cc2)[C@@H]1O (some centres unmarked) [Compound 2] | 5.64 | 6.14 | 6.69 | 5.49 | 6.45 | -83 | -91 |  |
| COC[C@H]1OC(OCc2ccc(Cl)cc2)[C@H](NC(=O)CCN)[C@H](OCc2ccc3ccccc3c2)[C@@H]1O (some centres unmarked) [Compound 3] | 5.43 | 5.91 |  | 5.34 |  | -75 | -39 | pIC50 [5]: 6.90; pIC50 [7]: 6.83 |
| COC[C@H]1OC(OCc2ccc(Cl)cc2)[C@H](NC(=O)CCCN=C(N)N)[C@H](OCc2ccc3ccccc3c2)[C@@H]1O (some centres unmarked) [Compound 4] | 5.80 | 6.07 | 6.73 | 5.85 | 6.28 | -98 | -90 |  |
| COC[C@H]1OC(OCCc2ccccc2)[C@H](NC(=O)CCN)[C@H](OCc2ccc3ccccc3c2)[C@@H]1O (some centres unmarked) [Compound 5] | 5.59 | 5.80 | 6.55 | 5.07 | 6.82 | -89 | -57 |  |
| COC[C@H]1OC(OCc2ccc3ccccc3c2)[C@H](NC(=O)CCN)[C@H](OCc2ccccc2)[C@@H]1O (some centres unmarked) [Compound 6] | < 5.00 |  |  | < 5.00 | 6.82 | 24 | -78 | pIC50 ([4]; shown where Ki could not be determined (NoModel), read-out: IC50 SSTR2 (in parentheses)): 4.53; pIC50 [5]: 6.69 |
| COC[C@H]1OC(OCc2ccc3ccccc3c2)[C@H](NC(=O)CCN)[C@H](OCc2ccc(Cl)cc2)[C@@H]1O (some centres unmarked) [Compound 7] | 5.22 | 6.30 | 6.88 | 5.04 | 7.66 | -81 | -63 |  |
| COC[C@H]1O[C@@H](OCc2ccc3ccccc3c2)[C@H](NC(=O)CCN=C(N)N)[C@H](OCc2ccc3ccccc3c2)[C@@H]1O [Compound 8] | 5.51 | 5.70 | 6.22 | 5.56 | 6.22 | 66 | -18 |  |
| COC[C@H]1OC(OCc2ccc3ccccc3c2)[C@H](NC(=O)CCCN)[C@@H](OCc2ccc3ccccc3c2)[C@@H]1O (some centres unmarked) [Compound 11] | 5.04 | 5.31 |  | 5.40 |  | 29 | -53 | pIC50 [5]: 8.70; pIC50 [7]: 8.52 |
| COC[C@H]1O[C@@H](OCc2ccc3ccccc3c2)[C@H](NC(=O)CCCN)[C@@H](OCc2ccc(Cl)cc2)[C@@H]1O [Compound 12] | < 5.00 | 5.30 |  | < 5.00 | 7.34 | -95 | -71 | pIC50 [5]: 6.37 |
| COC[C@H]1O[C@H](OCc2ccc3ccccc3c2)[C@H](NC(=O)CCCN)[C@@H](OCc2ccc(Cl)cc2)[C@@H]1O [Compound 13] | < 5.00 | < 5.00 |  | < 5.00 | 7.21 | 58 | -80 | pIC50 [5]: 6.32 |
| CO[C@H]1[C@H](O)[C@@H](COCc2ccc3ccccc3c2)OC(OCc2ccc(Cl)cc2)[C@@H]1NC(=O)C1CCCN(C(=N)N)C1 (some centres unmarked) [Compound 14] | < 5.00 | 5.92 | 6.47 | < 5.00 | 6.26 | -95 | -90 |  |
| COC[C@H]1O[C@H](OCc2ccc3ccccc3c2)[C@H](NC(=O)CCN)[C@H](OCc2ccc3ccccc3c2)[C@@H]1O [Compound 15] | 5.71 | 5.98 | 6.10 | 5.65 | 7.14 | -78 | -67 |  |
| COC[C@H]1OC(OCc2ccc3ccccc3c2)[C@H](NC(=O)CCN)[C@H](OCc2ccc3ccccc3c2)[C@@H]1O (some centres unmarked) [Compound 16] | 5.63 | 6.07 | 6.36 | 5.36 | 7.07 |  |  |  |
| COC[C@H]1O[C@H](OCCc2ccccc2)[C@H](NC(=O)CCCN)[C@@H](OCc2ccc3ccccc3c2)[C@@H]1O [Hydrochloride] |  |  |  |  |  |  |  | solubility at 3 day ([2]; 5% glucose, saline or isotonic, 5% Glucose, Day 3): 6300 µg/mL; Solubility in Water [2]: 7870 µg/mL |
| COC[C@H]1O[C@H](OCCc2ccccc2)[C@H](NC(=O)CCCN)[C@@H](OCc2ccc3ccccc3c2)[C@@H]1O [Methanesulphonate] |  |  |  |  |  |  |  | Solubility in Water [2]: 5170 µg/mL |
| COC[C@H]1O[C@H](OCCc2ccccc2)[C@H](NC(=O)CCCN)[C@@H](OCc2ccc3ccccc3c2)[C@@H]1O [Succinate] |  |  |  |  |  |  |  | Solubility in 5% Glucose ([2]; 5% Glucose, Day 3): 4980 µg/mL; Solubility in Water [2]: 8520 µg/mL |
| COC[C@H]1O[C@H](OCCc2ccccc2)[C@H](NC(=O)CCCN)[C@@H](OCc2ccc3ccccc3c2)[C@@H]1O [TFA] |  |  |  |  |  |  |  | Solubility in 5% Glucose ([2]; 5% Glucose, Day 3): 5270 µg/mL; Solubility in Water [2]: 3640 µg/mL |
